Measurements reported in US8304377B2, “Sulfonate surfactants and methods of preparation and use” (Dow Global Technologies LLC, priority 2009, dated 2012).

Experiments:
[1] = test system: Daphna magna; experiment: 48-hour acute toxicity to Daphnia; format: in vivo
Excerpt: The study procedures and test methods are based on the recommendations of the following guidelines:
Data from the aquatic toxicity tests of the isolated and purified C12 mono and disulfonates from Example 11 is shown in Table 3.

[2] = test system: Desmondesmus subspicatus; experiment: Fresh water algal growth inhibition test (OECD 201); format: cell-based; details: growth rate, 0-3; read-out: Fresh Water algal growth inhibition test with Desmondesmus subspicatus ErC50/0-3
Excerpt: The study procedures and test methods are based on the recommendations of the following guidelines: Organization for Economic Cooperation and Development (OECD): OECD Guidelines for the Testing of Chemicals, “Freshwater Alga and Cyanobacteria, Growth Inhibition Test”, Procedure 201, adopted 23 Mar. 2006; European Economic Community (EEC): Commission directive 92/69/EEC of 31 Jul. 1992, Methods for the determination of ecotoxicity, C.3., “Algal Inhibition Test”. Data from the aquatic toxicity tests of the isolated and purified C12 mono and disulfonates from Example 11 is shown in Table 3.

[3] = Solubility evaluation, visual assessment in caustic, calcium chloride and cold water; format: physicochemical
Excerpt: The final concentrations are: 0.1 wt % for surfactant, 10 wt % for NaOH.
The final concentrations are: 0.1 wt % for surfactant, 1 M for CaCl2.
, C12, and C14 sulfonate compositions of the invention, as produced in Examples 5, 7, and 8, in 10% sodium hydroxide, 1M calcium chloride, […] 2A1 are shown in Table 2 below, and indicate that these new materials have desirable characteristics.

Compound	EC50 [1] [µg/mL]	EC50 [2] [µg/mL]	Visual assessment, 0.1 wt % surfactant in 1M CaCl2 ([3]; 0.1 wt % surfactant, 1 M CaCl2)	Visual assessment, 0.1 wt % surfactant in 10% NaOH ([3]; 0.1 wt % surfactant, 10 wt % NaOH)	Visual assessment, 1 wt % surfactant at 7° C. ([3]; 1 wt % surfactant, 7° C.)
CCCCCCCCCCCCOC(CS(=O)(=O)[O-])CS(=O)(=O)[O-].[Na+].[Na+] [sodium 2-(dodecanyloxy)propane-1,3-disulfonate]	> 100	> 100			
linear alkylbenzene sulfonate [LAS]			cloudy	cloudy	cloudy
